{"source": "paper PMC7026418", "about": "“The kinase polypharmacology landscape of clinical PARP inhibitors” (Scientific Reports, 2020)", "assay_in_all_cases": "biochemical", "design_in_all_cases": "DiscoveRx KINOMEscan active site-directed competition binding; percent of control kinase bound to immobilised ligand", "key": {"MYLK": {"molecular_target": "MYLK (Homo sapiens, UniProt Q15746)", "sequence (Q15746 whole entry)": "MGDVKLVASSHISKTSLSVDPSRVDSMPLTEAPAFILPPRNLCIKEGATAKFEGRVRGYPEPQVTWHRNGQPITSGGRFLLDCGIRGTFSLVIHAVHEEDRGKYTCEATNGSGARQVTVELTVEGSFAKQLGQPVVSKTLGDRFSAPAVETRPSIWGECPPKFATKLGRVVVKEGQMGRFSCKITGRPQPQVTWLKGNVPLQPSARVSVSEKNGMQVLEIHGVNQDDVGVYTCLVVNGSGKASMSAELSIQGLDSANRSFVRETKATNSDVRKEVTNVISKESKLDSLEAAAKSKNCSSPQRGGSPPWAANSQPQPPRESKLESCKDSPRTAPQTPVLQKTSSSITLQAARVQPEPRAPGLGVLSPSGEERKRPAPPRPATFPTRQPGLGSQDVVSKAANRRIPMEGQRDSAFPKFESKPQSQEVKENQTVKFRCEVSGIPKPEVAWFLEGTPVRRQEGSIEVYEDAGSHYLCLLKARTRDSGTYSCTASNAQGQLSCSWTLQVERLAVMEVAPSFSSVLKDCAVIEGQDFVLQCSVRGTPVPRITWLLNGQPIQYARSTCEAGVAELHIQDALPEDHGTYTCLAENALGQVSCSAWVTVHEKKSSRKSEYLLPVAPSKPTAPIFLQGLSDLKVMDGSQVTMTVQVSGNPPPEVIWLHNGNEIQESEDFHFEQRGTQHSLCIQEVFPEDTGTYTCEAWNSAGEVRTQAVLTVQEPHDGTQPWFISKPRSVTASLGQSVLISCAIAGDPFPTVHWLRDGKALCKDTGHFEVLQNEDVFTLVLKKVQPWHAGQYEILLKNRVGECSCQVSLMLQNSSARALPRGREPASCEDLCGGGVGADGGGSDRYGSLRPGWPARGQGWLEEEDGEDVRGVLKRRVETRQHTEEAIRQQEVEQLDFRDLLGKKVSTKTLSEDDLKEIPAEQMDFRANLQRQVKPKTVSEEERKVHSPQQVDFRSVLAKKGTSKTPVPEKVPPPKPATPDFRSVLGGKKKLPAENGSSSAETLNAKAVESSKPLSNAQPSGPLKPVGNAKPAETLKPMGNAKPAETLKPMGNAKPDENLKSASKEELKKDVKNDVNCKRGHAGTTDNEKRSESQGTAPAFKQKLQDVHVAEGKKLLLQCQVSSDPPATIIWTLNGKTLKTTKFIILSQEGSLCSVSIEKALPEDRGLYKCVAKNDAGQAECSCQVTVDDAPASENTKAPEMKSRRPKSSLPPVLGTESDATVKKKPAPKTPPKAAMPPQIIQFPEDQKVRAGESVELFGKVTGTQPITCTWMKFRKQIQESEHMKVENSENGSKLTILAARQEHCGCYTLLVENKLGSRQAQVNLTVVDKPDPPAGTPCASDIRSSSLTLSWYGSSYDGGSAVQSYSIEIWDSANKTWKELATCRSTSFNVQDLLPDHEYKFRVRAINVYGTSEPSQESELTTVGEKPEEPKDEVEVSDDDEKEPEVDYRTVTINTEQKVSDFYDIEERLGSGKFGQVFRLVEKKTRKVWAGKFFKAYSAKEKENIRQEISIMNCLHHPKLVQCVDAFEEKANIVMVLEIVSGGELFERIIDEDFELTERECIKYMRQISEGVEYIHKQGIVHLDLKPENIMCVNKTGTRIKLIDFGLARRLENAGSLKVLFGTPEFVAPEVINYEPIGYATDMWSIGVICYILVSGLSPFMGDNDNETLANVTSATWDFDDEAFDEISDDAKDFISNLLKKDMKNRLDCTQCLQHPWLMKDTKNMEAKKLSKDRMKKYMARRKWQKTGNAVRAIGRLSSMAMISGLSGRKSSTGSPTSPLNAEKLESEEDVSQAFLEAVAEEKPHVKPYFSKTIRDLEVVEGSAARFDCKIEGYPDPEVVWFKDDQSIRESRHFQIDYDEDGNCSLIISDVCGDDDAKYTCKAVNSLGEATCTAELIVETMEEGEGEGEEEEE"}, "INSR": {"molecular_target": "INSR (Homo sapiens, UniProt P06213)", "sequence (P06213 whole entry)": "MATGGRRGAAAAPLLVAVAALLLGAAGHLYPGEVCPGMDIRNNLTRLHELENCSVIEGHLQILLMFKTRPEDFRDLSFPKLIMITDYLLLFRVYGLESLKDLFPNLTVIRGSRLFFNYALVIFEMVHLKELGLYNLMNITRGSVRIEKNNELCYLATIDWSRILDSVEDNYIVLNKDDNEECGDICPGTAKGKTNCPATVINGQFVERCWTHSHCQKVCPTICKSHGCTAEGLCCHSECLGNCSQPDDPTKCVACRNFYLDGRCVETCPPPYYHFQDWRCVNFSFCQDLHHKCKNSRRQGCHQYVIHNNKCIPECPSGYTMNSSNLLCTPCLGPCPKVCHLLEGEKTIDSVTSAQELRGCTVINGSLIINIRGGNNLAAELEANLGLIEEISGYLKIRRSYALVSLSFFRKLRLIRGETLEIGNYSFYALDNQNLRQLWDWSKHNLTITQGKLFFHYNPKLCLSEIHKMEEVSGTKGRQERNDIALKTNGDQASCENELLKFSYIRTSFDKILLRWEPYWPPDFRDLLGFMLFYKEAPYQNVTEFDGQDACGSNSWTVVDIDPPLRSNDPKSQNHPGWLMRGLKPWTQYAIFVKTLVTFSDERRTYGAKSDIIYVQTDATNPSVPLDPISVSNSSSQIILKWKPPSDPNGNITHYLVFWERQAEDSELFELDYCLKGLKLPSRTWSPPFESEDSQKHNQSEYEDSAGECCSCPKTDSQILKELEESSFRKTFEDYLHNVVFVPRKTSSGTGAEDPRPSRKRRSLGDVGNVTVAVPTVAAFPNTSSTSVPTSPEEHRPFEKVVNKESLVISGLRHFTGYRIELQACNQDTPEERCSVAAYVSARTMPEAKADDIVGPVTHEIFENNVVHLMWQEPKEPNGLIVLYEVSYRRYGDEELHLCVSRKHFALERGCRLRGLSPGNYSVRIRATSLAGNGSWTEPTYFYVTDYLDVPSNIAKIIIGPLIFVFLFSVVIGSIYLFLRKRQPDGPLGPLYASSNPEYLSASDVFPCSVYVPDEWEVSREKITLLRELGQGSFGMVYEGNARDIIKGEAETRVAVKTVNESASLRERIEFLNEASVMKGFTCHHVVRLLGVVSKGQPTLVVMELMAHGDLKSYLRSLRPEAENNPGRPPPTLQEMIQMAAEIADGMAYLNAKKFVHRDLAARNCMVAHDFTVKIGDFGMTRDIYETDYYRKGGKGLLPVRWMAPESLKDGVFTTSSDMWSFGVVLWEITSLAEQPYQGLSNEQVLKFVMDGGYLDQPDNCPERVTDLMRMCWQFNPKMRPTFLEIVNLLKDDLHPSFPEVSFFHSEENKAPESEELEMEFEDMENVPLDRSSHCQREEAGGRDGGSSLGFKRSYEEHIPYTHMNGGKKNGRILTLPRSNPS"}, "CSF1R-autoinhibited": {"molecular_target": "CSF1R-autoinhibited (Homo sapiens, UniProt P07333)", "sequence (P07333 whole entry)": "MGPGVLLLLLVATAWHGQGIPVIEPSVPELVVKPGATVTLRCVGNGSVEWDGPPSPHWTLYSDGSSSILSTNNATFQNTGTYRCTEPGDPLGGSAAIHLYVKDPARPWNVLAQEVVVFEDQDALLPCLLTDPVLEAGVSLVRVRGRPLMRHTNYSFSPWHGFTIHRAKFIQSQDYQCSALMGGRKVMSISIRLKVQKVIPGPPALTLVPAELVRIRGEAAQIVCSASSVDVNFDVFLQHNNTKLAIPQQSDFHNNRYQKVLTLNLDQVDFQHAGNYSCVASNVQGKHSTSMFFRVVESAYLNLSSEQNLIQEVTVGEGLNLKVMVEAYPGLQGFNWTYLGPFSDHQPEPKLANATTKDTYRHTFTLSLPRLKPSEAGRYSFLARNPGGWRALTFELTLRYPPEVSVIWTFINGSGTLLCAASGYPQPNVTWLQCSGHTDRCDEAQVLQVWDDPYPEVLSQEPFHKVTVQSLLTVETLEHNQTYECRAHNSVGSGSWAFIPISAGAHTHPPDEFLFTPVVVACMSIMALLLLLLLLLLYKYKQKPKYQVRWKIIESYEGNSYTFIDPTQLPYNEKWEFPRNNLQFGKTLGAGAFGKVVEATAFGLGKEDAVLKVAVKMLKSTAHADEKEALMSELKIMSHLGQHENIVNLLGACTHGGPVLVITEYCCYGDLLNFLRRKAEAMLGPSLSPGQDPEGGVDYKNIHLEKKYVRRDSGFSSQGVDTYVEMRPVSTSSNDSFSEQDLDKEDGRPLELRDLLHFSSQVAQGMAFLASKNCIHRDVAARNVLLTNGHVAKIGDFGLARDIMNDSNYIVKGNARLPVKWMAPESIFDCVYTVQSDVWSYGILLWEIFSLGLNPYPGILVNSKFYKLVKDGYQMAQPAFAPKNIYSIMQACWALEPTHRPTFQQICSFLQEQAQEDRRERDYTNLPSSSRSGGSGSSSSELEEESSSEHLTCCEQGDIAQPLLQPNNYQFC"}, "FLT3(N841I)": {"molecular_target": "T1, FLT3(N841I) (Homo sapiens, UniProt P36888, N841I)", "T1 sequence (P36888 1-993 N841I)": "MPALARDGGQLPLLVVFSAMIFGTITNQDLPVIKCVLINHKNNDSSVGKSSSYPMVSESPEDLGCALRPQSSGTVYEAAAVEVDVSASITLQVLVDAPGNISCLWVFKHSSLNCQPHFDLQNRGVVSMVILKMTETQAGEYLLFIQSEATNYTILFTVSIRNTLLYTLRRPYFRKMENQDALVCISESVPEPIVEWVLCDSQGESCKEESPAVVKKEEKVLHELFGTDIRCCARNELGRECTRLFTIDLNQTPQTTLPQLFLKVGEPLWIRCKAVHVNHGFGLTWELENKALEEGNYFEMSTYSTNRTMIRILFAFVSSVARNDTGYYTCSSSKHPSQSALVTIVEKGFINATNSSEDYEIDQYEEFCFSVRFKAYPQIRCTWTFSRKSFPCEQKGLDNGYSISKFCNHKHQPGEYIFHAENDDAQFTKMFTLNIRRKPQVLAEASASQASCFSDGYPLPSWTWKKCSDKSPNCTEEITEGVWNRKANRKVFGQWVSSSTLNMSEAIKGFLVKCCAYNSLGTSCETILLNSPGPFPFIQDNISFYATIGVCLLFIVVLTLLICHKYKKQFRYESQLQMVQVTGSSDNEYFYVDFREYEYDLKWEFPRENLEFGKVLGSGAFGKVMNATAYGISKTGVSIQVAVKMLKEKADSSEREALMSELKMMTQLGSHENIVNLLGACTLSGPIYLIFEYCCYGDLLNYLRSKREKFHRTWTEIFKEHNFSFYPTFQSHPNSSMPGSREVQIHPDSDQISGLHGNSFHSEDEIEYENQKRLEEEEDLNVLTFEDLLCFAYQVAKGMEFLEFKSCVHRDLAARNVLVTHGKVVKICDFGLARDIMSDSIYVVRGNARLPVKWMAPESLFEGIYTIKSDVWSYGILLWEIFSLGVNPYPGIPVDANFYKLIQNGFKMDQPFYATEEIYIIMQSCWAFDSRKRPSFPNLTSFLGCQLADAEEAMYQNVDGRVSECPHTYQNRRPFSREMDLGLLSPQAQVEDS"}, "MRCKA": {"molecular_target": "T2, MRCKA (Homo sapiens, UniProt Q5VT25)", "T2 construct": "gene CDC42BPA"}, "SIK": {"molecular_target": "T3, SIK (Homo sapiens, UniProt P57059)", "T3 construct": "gene SIK1"}, "DMPK": {"molecular_target": "T4, DMPK (Homo sapiens, UniProt Q09013)", "T4 sequence (Q09013 1-629)": "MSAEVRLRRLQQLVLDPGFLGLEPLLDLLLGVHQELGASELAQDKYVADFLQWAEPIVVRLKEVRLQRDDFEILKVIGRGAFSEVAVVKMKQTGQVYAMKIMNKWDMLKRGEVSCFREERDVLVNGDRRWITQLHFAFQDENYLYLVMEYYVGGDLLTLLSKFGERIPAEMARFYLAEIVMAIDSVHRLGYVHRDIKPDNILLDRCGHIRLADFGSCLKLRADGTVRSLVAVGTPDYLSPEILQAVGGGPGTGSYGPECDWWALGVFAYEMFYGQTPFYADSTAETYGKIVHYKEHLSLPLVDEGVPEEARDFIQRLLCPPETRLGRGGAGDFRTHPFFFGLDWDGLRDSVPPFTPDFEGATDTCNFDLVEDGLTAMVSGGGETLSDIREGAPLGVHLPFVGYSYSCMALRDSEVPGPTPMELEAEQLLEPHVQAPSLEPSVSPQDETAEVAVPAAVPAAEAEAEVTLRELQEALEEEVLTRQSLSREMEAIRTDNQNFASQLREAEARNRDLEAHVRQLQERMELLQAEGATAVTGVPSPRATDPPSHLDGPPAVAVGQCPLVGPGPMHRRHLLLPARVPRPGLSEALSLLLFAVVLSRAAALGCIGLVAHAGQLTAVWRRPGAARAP"}, "CDC2L5": {"molecular_target": "T5, CDC2L5 (Homo sapiens, UniProt Q14004)", "T5 construct": "gene CDK13"}, "DMPK2": {"molecular_target": "T6, DMPK2 (Homo sapiens, UniProt Q6DT37)", "T6 construct": "gene CDC42BPG"}, "MLK3": {"molecular_target": "T7, MLK3 (Homo sapiens, UniProt Q16584)", "T7 construct": "gene MAP3K11"}, "[1]": {"conditions": "read-out: Niraparib (MK-4827) / %Ctrl @ 10000nM"}, "[2]": {"conditions": "read-out: Olaparib / %Ctrl @ 10000nM"}, "[3]": {"conditions": "read-out: Rucaparib / %Ctrl @ 10000nM, binding competition, % of control"}, "[4]": {"conditions": "read-out: Talazoparib (BMN 673) / %Ctrl @ 10000nM"}}, "note": "Like-named read-outs stand apart in the source and are kept apart here.", "data": [{"smiles": "NC(=O)c1cccc2cn(-c3ccc([C@@H]4CCCNC4)cc3)nc12", "note": "[Niraparib]", "values": [{"measurement": "percent of control binding at 10 µM", "setting": "MYLK; [1]", "result": 73, "unit": "%"}, {"measurement": "percent of control binding at 10 µM", "setting": "INSR; [1]", "result": 86, "unit": "%"}, {"measurement": "percent of control binding at 10 µM", "setting": "CSF1R-autoinhibited; [1]", "result": 81, "unit": "%"}, {"measurement": "percent of control binding at 10 µM", "setting": "FLT3(N841I); [1]", "result": 77, "unit": "%"}, {"measurement": "percent of control binding at 10 µM", "setting": "MRCKA; [1]", "result": 100, "unit": "%"}, {"measurement": "percent of control binding at 10 µM", "setting": "SIK; [1]", "result": 93, "unit": "%"}, {"measurement": "percent of control binding at 10 µM", "setting": "DMPK; [1]", "result": 90, "unit": "%"}, {"measurement": "percent of control binding at 10 µM", "setting": "CDC2L5; [1]", "result": 100, "unit": "%"}, {"measurement": "percent of control binding at 10 µM", "setting": "DMPK2; [1]", "result": 93, "unit": "%"}, {"measurement": "percent of control binding at 10 µM", "setting": "MLK3; [1]", "result": 84, "unit": "%"}]}, {"smiles": "O=C(c1cc(Cc2n[nH]c(=O)c3ccccc23)ccc1F)N1CCN(C(=O)C2CC2)CC1", "note": "[Olaparib]", "values": [{"measurement": "percent of control binding at 10 µM", "setting": "MYLK; [2]", "result": 75, "unit": "%"}, {"measurement": "percent of control binding at 10 µM", "setting": "INSR; [2]", "result": 85, "unit": "%"}, {"measurement": "percent of control binding at 10 µM", "setting": "CSF1R-autoinhibited; [2]", "result": 95, "unit": "%"}, {"measurement": "percent of control binding at 10 µM", "setting": "FLT3(N841I); [2]", "result": 95, "unit": "%"}, {"measurement": "percent of control binding at 10 µM", "setting": "MRCKA; [2]", "result": 98, "unit": "%"}, {"measurement": "percent of control binding at 10 µM", "setting": "SIK; [2]", "result": 95, "unit": "%"}, {"measurement": "percent of control binding at 10 µM", "setting": "DMPK; [2]", "result": 98, "unit": "%"}, {"measurement": "percent of control binding at 10 µM", "setting": "CDC2L5; [2]", "result": 99, "unit": "%"}, {"measurement": "percent of control binding at 10 µM", "setting": "DMPK2; [2]", "result": 100, "unit": "%"}, {"measurement": "percent of control binding at 10 µM", "setting": "MLK3; [2]", "result": 100, "unit": "%"}]}, {"smiles": "CNCc1ccc(-c2[nH]c3cc(F)cc4c3c2CCNC4=O)cc1", "note": "[Rucaparib]", "values": [{"measurement": "percent of control binding at 10 µM", "setting": "MYLK; [3]", "result": 34, "unit": "%"}, {"measurement": "percent of control binding at 10 µM", "setting": "INSR; [3]", "result": 86, "unit": "%"}, {"measurement": "percent of control binding at 10 µM", "setting": "CSF1R-autoinhibited; [3]", "result": 99, "unit": "%"}, {"measurement": "Rucaparib / %Ctrl @ 10000nM", "setting": "FLT3(N841I); binding competition, % of control", "result": 64, "unit": "%"}, {"measurement": "percent of control binding at 10 µM", "setting": "MRCKA; [3]", "result": 97, "unit": "%"}, {"measurement": "percent of control binding at 10 µM", "setting": "SIK; [3]", "result": 87, "unit": "%"}, {"measurement": "percent of control binding at 10 µM", "setting": "DMPK; [3]", "result": 100, "unit": "%"}, {"measurement": "percent of control binding at 10 µM", "setting": "CDC2L5; [3]", "result": 98, "unit": "%"}, {"measurement": "percent of control binding at 10 µM", "setting": "DMPK2; [3]", "result": 99, "unit": "%"}, {"measurement": "percent of control binding at 10 µM", "setting": "MLK3; [3]", "result": 92, "unit": "%"}]}, {"smiles": "Cn1ncnc1[C@H]1c2n[nH]c(=O)c3cc(F)cc(c23)N[C@@H]1c1ccc(F)cc1", "note": "[Talazoparib]", "values": [{"measurement": "percent of control binding at 10 µM", "setting": "MYLK; [4]", "result": 77, "unit": "%"}, {"measurement": "percent of control binding at 10 µM", "setting": "INSR; [4]", "result": 62, "unit": "%"}, {"measurement": "percent of control binding at 10 µM", "setting": "CSF1R-autoinhibited; [4]", "result": 100, "unit": "%"}, {"measurement": "percent of control binding at 10 µM", "setting": "FLT3(N841I); [4]", "result": 100, "unit": "%"}, {"measurement": "percent of control binding at 10 µM", "setting": "MRCKA; [4]", "result": 100, "unit": "%"}, {"measurement": "percent of control binding at 10 µM", "setting": "SIK; [4]", "result": 78, "unit": "%"}, {"measurement": "percent of control binding at 10 µM", "setting": "DMPK; [4]", "result": 83, "unit": "%"}, {"measurement": "percent of control binding at 10 µM", "setting": "CDC2L5; [4]", "result": 100, "unit": "%"}, {"measurement": "percent of control binding at 10 µM", "setting": "DMPK2; [4]", "result": 100, "unit": "%"}, {"measurement": "percent of control binding at 10 µM", "setting": "MLK3; [4]", "result": 70, "unit": "%"}]}]}
